Experimental data published in patent publication US20190290769A1, “Hydrogel Compositions” (The Trustees of the University of Pennsylvania, priority 2018, published 2019).
Converted amounts (≈) assume the structure as drawn.

Test system: T3565 cultured glioma stem cell
Assay: MTS assay of valproic acid on glioma stem cell viability
Assay type: cell-based
Settings: T3565 cells, varying concentrations
Source text: In vitro testing of valproic acid on glioma stem cell and non-stem cells.

IC50: 600 µg/mL (≈ 4.16 mM)
SMILES: CCCC(CCC)C(=O)O [valproic acid]
